pIC50: −log10 of the molar value.
Biological target: T1, human MC4 receptor (Homo sapiens, UniProt P32245)
T1 construct: purchased Biolinks Co; host or cells: HEK-293 cell membranes
Assay: MC4 receptor binding assay ([125I]Nle4-D-Phe7-α-MSH displacement)
Conditions: HEK-293 cell membranes expressing the human MC4 receptor; [125I]Nle4-D-Phe7-α-MSH 0.2 nM; 25° C., 120 minutes
Description: Experiment 1 [MC4 Receptor Binding Assay]
MC4 receptor binding assay was carried out according to the method described in Pharmacology & Toxicology, 79, 161-165, 1996. HEK-293 cell membranes expressing the human MC4 receptor were purchased from Biolinks Co. The cell membranes were homogenized in a 50 mM Tris hydrochloric acid buffer solution (pH 7.4) containing 2 mM ethylenediamine tetraacetic acid, 10 mM calcium chloride and 100 μM phenylmethanesulfonylfluoride. The homogenate was centrifuged at 48,000×g for 20 minutes at 4° C. The precipitate obtained by centrifugation was again homogenized in the same buffer solution, and the homogenate was centrifuged at 48,000×g for 20 minutes at 4° C. This procedure was repeated twice. The precipitate was suspended in 50 mM Tris hydrochloric acid buffer solution (pH 7.4) containing 2 mM ethylenediamine tetraacetic acid, 10 mM calcium chloride, 100 μM phenylmethanesulfonylfluoride and 0.1% bovine serum albumin to adjust to a protein concentration of 100 μg/ml to give a crude membrane preparation which was used for the binding assay. The crude membrane preparation (0.25 ml, 25 μg protein) was reacted with [^125I]Nle^4-D-Phe^7-α-MSH (final concentration; 0.2 nM) at 25° C. for 120 minutes. […] The radioactivity on the filter paper was measured in a gamma-counter. […] The IC50 value was calculated from the inhibition curve in the concentration of 10^−9-10^−5.

T1 sequence (P32245 whole entry): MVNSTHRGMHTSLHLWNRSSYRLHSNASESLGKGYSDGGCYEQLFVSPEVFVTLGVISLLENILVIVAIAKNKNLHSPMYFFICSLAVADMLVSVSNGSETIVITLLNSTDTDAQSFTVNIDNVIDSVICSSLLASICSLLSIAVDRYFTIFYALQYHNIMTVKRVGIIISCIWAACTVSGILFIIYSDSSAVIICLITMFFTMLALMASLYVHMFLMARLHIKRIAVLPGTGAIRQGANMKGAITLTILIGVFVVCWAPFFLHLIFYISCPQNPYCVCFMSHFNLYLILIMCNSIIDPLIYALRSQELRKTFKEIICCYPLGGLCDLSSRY

pIC50: 6.16
SMILES: CC(=O)N[C@H](Cc1cccc2ccccc12)C(=O)N[C@@H](CCCNC(=N)N)C(=O)N[C@H](Cc1ccc2ccccc2c1)C(N)=O [Compound 224]

Source: patent publication US20040147567A1, “Arginine derivatives” (priority 2001, published 2004)
